This note sets out measurements from ChEMBL document CHEMBL2157940, “Low molecular weight phosphotyrosine protein phosphatases as emerging targets for the design of novel therapeutic agents” (J Med Chem, 2012).

Structures are written as SMILES.

Assay [1] deals with T1, Low molecular weight phosphotyrosine protein phosphatase (Homo sapiens, UniProt P24666).
T1 sequence (P24666 whole entry): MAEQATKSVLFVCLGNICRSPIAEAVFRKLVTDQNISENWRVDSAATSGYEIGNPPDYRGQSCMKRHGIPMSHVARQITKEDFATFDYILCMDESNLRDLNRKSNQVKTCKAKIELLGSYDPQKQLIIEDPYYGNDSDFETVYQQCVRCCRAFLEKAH
In words: Inhibition of human LMW-PTPase isoform 1.

In assay [2] the target is T1, Low molecular weight phosphotyrosine protein phosphatase. The assay is described as follows: Inhibition of human LMW-PTPase isoform 2.
In assay [3] the target is T2, Tyrosine-protein phosphatase non-receptor type 1 (Homo sapiens, UniProt P18031).
T2 sequence (P18031 whole entry): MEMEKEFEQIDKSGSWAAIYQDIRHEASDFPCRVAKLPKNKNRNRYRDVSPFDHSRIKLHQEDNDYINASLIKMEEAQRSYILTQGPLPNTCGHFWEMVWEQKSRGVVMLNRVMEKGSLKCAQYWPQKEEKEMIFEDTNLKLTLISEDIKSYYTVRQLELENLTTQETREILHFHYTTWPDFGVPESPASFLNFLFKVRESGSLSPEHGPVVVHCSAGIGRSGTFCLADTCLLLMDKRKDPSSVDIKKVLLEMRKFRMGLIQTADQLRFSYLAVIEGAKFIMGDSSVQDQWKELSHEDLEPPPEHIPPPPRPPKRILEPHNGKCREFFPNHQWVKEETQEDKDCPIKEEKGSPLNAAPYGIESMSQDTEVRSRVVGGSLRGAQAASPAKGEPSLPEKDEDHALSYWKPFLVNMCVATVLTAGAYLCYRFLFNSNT
In words: Inhibition of human PTP1B.

Assay [4] has as its target T3, Low molecular weight phosphotyrosine protein phosphatase (Bos taurus) (UniProt P11064).
T3 sequence (whole entry): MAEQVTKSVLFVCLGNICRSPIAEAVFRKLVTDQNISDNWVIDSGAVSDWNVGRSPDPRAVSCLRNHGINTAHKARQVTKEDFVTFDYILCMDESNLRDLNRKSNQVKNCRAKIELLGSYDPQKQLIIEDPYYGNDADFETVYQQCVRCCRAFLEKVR
The assay is described as follows: Inhibition of bovine kidney LMW-PTPase at 400 uM using pNPP substrate.

Assay [5] deals with T3, Low molecular weight phosphotyrosine protein phosphatase (Bos taurus). In words: Activation of bovine kidney LMW-PTPase at 400 uM using pNPP substrate.
Assay [6] is described as follows: Inhibition of Mycobacterium tuberculosis LMW-PTP.

In the case of `Nc1ccccc1/C=C/P(=O)(O)O`, the half-maximal inhibitory concentration (IC50) in assay [1] stood at 5300 µM; in assay [2], 13000 µM.
For the molecule `O=P(O)(O)CCc1cncc2cc[nH]c12`, the figures for the IC50 in assay [1] and in assay [2] were 1790 µM and 2760 µM, respectively.
Take `O=C(O)c1ccc(COc2ccc(/C=C3\S/C(=N\c4ccccc4)N(Cc4ccc(C(=O)O)cc4)C3=O)cc2)cc1`: the IC50 in assay [1] came to 5.8 µM; in assay [3] it was 0.55 µM.
As to `Nc1ccncc1CCP(=O)(O)O`, the IC50 in assay [1] was determined as 300 µM; in assay [2], 2210 µM.
In the case of `O=C(O)c1ccc(COc2cccc(/C=C3\S/C(=N\c4ccccc4)N(Cc4ccc(C(=O)O)cc4)C3=O)c2)cc1`, the results for the IC50 in assay [1] and in assay [2] were 0.5 µM and 0.22 µM, respectively.
The like results for `Nc1ccccc1CCP(=O)(O)O` were, in that order, 250 µM and 1400 µM.
In turn, `C[C@@H]1O[C@@H](OC[C@H]2O[C@@H](Oc3c(-c4ccc(O)c(O)c4)oc4cc(O)cc(O)c4c3=O)[C@H](O)[C@@H](O)[C@@H]2O)[C@H](O)[C@H](O)[C@H]1O` gave an inhibition in assay [4] of 14%.
Take `O=C(CCc1ccc(O)cc1)c1c(O)cc(O)cc1O`: in assay [4], the inhibition was determined as 14%.
Take `O=P(O)(O)CCc1cccc2ccccc12`: the results for the IC50 in assay [1] and in assay [2] were 14000 µM and 10000 µM, respectively.
Regarding `O=c1c(O)c(-c2ccc(O)c(O)c2)oc2cc(O)cc(O)c12`, the fold change (FC) in assay [5] amounted to 2.6.
As to `O=c1c(O)c(-c2ccc(O)cc2O)oc2cc(O)cc(O)c12`, the inhibition in assay [4] came to 35%.
Regarding `C/C(=C1\C=CC=N1)c1ccc(-c2ccc[nH]2)o1`, inhibition in assay [6] was half-maximal at 9.4 µM (IC50).
The same measure, in the same setting: for `CCCCCCCCCCCCC[C@H]1OC(=O)[C@H](COCc2ccccc2)NC(=O)[C@H]([C@@H](C)O)NC(=O)[C@H](C(C)C)NC(=O)[C@H]1C` the value was 8.8 µM.
In the case of `O=c1c(O)c(-c2cc(O)c(O)c(O)c2)oc2cc(O)cc(O)c12`, the inhibition in assay [4] is 14%.
Consider `Oc1cc(O)c2c(c1)OC(c1ccc(O)c(O)c1)C(O)C2` (configuration not stated), for which the inhibition in assay [4] worked out at 14%.
